Experimental data as given in patent publication US8597646B2, “Methods and compositons featuring TGF-beta antagonists for the treatment of marfan syndrome and associated disorders” (The Johns Hopkins University, priority 2005, dated 2013).
Entries after “also recorded” stand apart in the source; their conditions may differ.

Tests used:
Type in all cases: in vivo, mouse
[1] = system: mdx mice; assay: Muscle regeneration after cardiotoxin injury in 9-month old mdx mice
Protocol: All mouse protocols were approved by the Animal Care and Use Committee of Johns Hopkins University School of Medicine. Creation of the mouse line harboring the Fbn1 mutation C1039G has been previously described (Judge, D. P. et al. (2004) J Clin Invest 114, 172-81). All analyses were performed in male mice after back-crossing (>9 times) this mutation into the C57BL/6J background, allowing valid comparisons between litters. Mice were sacrificed with an inhalation overdose of halothane (Sigma-Aldrich) or by cervical dislocation. For muscle regeneration experiments in Fbn1^C1039G/+ mice, 100 μl cardiotoxin (10 μM Naja nigricollis; Calbiochem, La Jolla, Calif.) (Goetsch, S. C. et al. (2003) Physiol Genomics 14, 261-71; Cohn, R. D. et al. (2002) Cell 110, 639-48) was injected into the tibialis anterior muscle of wild-type and Fbn1^C1039G/+ mice either treated or untreated with TGFβ neutralizing antibody (n=6, each group) at 4 months of age. Subsequently, mice were analyzed at 4, 7, 18 and 28 days after injury. For regeneration experiments in mdx mice we injected 150 μl of cardiotoxin into the tibialis anterior muscle of wild-type and mdx mice, either treated or untreated with TGFβ neutralizing antibody (n=6 each group) at 9 months of age and analyzed skeletal muscle at 4 days and 18 days after injection.
Mice were continued on oral therapy for 6 months and sacrificed. […] Age-matched wild-type and mdx mice (placebo-treated) served as a control group. After 6 months of treatment, forelimb and hindlimb grip strength was assessed using an automated grip strength meter (Columbus Instruments, Columbus, Ohio). […] Total peak force (in Newtons) was determined by an electronic strain gauge as previously described and corrected for body weight (Wagner, K. R., et al. (2002) Ann Neurol 52, 832-6). […] The degree of fatigue was calculated by comparing the first two pulls to the last two pulls with the decrement between pulls 1+2 and pulls 4+5 providing a measure of fatigue. […]

[2] = system: TGFβ signaling cascade (TSP1, pSmad2, periostin); assay: Immunofluorescent analysis of proteins downstream of angiotensin II type 1 receptor in mdx muscle; details: monopotassium salt
Protocol: Immunofluorescent studies were performed as previously described (Cohn, R. D. et al. (2002) Cell 110, 639-48). […] The following antibodies were used in this study: goat polyclonal anti-pSmad 2/3, rabbit polyclonal anti c-met and rabbit polyclonal anti-myogenin (all from Santa Cruz Biotechnology Inc.); rabbit polyclonal anti-pSmad2 (#3104, Cell Signal) rat polyclonal anti-lamininyl, rabbit polyclonal anti-dystrophin, rabbit polyclonal antithrombospondin-1 and rabbit polyclonal anti-periostin (all from Abcam); rabbit polyclonal anti-fibrillin-1 (pAb 9543) (Judge, D. P. et al. (2004) J Clin Invest 114, 172-81); goat polyclonal anti-vimentin (Sigma) and, mouse monoclonal anti-beta-sarcoglycan mouse monoclonal anti-developmental myosin (Novocastra). Anti a-dystroglycan antibody IIH6 was generously supplied by Dr. Kevin Campbell, Iowa. Secondary Alexa fluor donkey anti-rabbit, anti-rat, anti mouse IgM and IgG1 and anti-goat conjugated antibodies (Molecular probes) were applied for 1 hour at room temperature. Nuclei were stained with DAPI for 5 minutes, and inverted coverslips were mounted onto glass slides using Cytoseal (Vector Laboratories).
It has recently been shown that thrombospondin-1 (TSP1) acts as a potent mediator of angiotensin II induced TGF-beta activation via AT I R (Zhou Y, et al. (2006) Biochem Biophys Res Commun. 339, 633-641). […] Therefore, the expression of dystrophin, a-dystroglycan and R-sarcoglycan in losartan-treated and untreated mdx mice was investigated.

[3] = system: Fbn1C1039G/+ mice; assay: Postnatal treatment with losartan and propranolol, aorta of Fbn1C1039G/+ mice; details: for Aortic root growth rate: during 6 months of treatment
From the text: However, before treatment, the aortic diameter in Fbn1C1039G/+ mice was always greater than in untreated wild-type mice (1.59±0.11 mm; P<0.002).
Three independent aortic root measurements were obtained for each mouse every 2 months during the 6 months of treatment. Mice were killed at 8 months of age. […] The aortic root growth rate over this period was less in the wild-type mice than in the placebo-treated Fbn1C1039G/+ mice (P<0.0001, FIG. 21I).

[4] = 6 months of treatment, monopotassium salt

CCCCc1nc(Cl)c(CO)n1Cc1ccc(-c2ccccc2-c2nnn[nH]2)cc1.[K] [losartan, 2-butyl-4-chloro-1-[p-(o-1H-tetrazol-5-ylphenyl)benzyl]imidazole-5-methanol monopotassium salt]
Muscle regeneration in mdx mice, in words ([1]; 4 days after cardiotoxin, neonatal myosin staining): active regeneration comparable to that seen in wild-type mice
Fibrosis (vimentin) after injury, in words ([1]; 18 days after cardiotoxin, monopotassium salt): reduced fibrosis; also recorded: marked reduction in fibrosis
Neonatal myosin positive fibers ([1]; four days after injury, untreated mdx 268±12, wild-type 689±19): 513±14 neonatal myosin positive fibers per tibialis anterior muscle
Expression of thrombospondin-1 (TSP1) ([2]; mdx diaphragm and other muscles): greatly reduced expression of TSP1
Dystrophin, a-dystroglycan, sarcoglycan expression / ubiquitin mediated proteolysis ([2]; mdx mice): did not have any impact; also recorded: absent
Nuclear accumulation of pSmad2 and sarcolemmal expression of periostin ([2]; mdx mice): did not show any significant nuclear accumulation of pSmad2 or sarcolemmal expression of periostin; also recorded: diminished
Aortic wall / elastic fiber architecture [3, 4]: full normalization relative to wild-type mice
Aortic wall thickness [3, 4]: full normalization relative to wild-type mice; also recorded: indistinguishable from that seen in wild-type mice
Aortic root growth rate ([3]; listed as Losartan, monopotassium salt): normalizes growth rate
Aortic root growth rate ([3]; monopotassium salt): indistinguishable from that in the wild-type group
Elastic fiber fragmentation (VVG staining) ([3]; from 7 weeks of age, 6 months, drinking water, monopotassium salt): prevented elastic fiber fragmentation; also recorded: Elastic lamellae are intact
TGF-β signaling in aortic media (nuclear pSmad2) ([3]; from 7 weeks of age, 6 months, monopotassium salt): blunted TGF-β signaling; also recorded: Nuclear pSmad2 staining is decreased
Absolute diameter of the aortic root at the end of treatment ([3]; versus untreated wild-type littermates): similar
